Reference: US11053230B2, “3-hydroxy-imidazolidin-4-one compounds as inhibitors of indoleamine 2,3-dioxygenase” (Netherlands Translational Research Center B.V., priority 2017, dated 2021)
pIC50: −log10 of the molar value. Where “and” joins values, the source holds several entries; their conditions need not be identical. Equal values may be shown once.

These compounds were tested against T1, IDO1 (Homo sapiens, UniProt P14902) (assay: Biochemical IDO1 assay (NFK GreenScreen)). Settings: NFK GreenScreen; 25 nM IDO1, 100 μM L-tryptophan; read-out: IC50, inhibitory potency on IDO1.
T1 construct: Recombinant full-length IDO1 (Seegers, N., et al.) and all other assay components were diluted in IDO1 reaction buffer; made in house
Protocol: Inhibition of IDO1 activity can be measured by determining the enzymatic conversion of L-tryptophan into N-formylkynurenine (NFK) in a reaction mixture containing IDO1 and test compound. The formation of NFK can be detected directly by, for instance, high-performance liquid chromatography (HPLC) methods, or by intrinsic fluorescence.
Compounds were serially diluted in dimethylsulfoxide (DMSO) and finally in IDO1 reaction buffer, consisting of 50 mM NaH2PO4, pH7.0, supplemented with 0.05% Tween-20 (cat. No. P7949; Sigma Aldrich) and 1% glycerol. Recombinant full-length IDO1 (Seegers, N., et al.) and all other assay components were diluted in IDO1 reaction buffer. […] Subsequently, 10 μl of 0.4 mM of the substrate L-tryptophan was added, i.e., the final concentration of L-tryptophan was 100 μM. The DMSO concentration in the assay was 0.3%. […] Incubation was continued for 60 min at room temperature. Then, 10 μl of NFK Green™ (NTRC, Oss, The Netherlands) was added, the plate was sealed, and the reaction was developed for 3 hours at 37° C. To determine the production of N-formyl kynurenine (NFK), the seal was removed and fluorescence was read on an EnVision multimode reader (Perkin Elmer, Waltham, Mass., USA). IC50 were calculated using XLfit™ software (ID Business Solutions, Ltd., Surrey, U.K.).

T1 sequence (P14902 whole entry): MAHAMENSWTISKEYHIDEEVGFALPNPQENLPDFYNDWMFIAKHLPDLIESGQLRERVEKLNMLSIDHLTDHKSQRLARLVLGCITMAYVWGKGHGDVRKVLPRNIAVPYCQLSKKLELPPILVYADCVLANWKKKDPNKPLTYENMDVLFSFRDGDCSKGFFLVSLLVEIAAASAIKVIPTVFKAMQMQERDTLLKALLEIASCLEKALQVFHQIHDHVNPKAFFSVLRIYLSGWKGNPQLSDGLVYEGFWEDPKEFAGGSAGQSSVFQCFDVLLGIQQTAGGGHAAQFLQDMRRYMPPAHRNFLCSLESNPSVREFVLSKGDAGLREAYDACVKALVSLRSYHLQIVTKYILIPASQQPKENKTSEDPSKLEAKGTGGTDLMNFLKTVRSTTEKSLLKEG

Row | pIC50 | SMILES
1 | ≥ 5.30 and 5.30 to 6.00 | O=C1CN(C(=O)c2c(F)cccc2F)C(c2nc(Br)cs2)N1O (stereo not shown) [Example 22, 2-(4-Bromothiazol-2-yl)-1-(2,6-difluorobenzoyl)-3-hydroxy-imidazolidin-4-one]
2 | ≥ 5.30 and 5.30 to 6.00 | O=C1CN(C(=O)c2c(F)cccc2F)C(c2cc(Br)co2)N1O (stereo not shown) [Example 23, 2-(4-Bromo-2-furyl)-1-(2,6-difluorobenzoyl)-3-hydroxy-imidazolidin-4-one]
3 | ≥ 6.00 | O=C1CN(C(=O)c2c(F)cccc2F)C(c2csc(Br)c2)N1O (stereo not shown) [Example 28, 2-(5-Bromo-3-thienyl)-1-(2,6-difluorobenzoyl)-3-hydroxy-imidazolidin-4-one]
4 | ≥ 5.30 and 5.30 to 6.00 | N#Cc1csc(C2N(O)C(=O)CN2C(=O)c2c(F)cccc2Cl)c1 (stereo not shown) [Example 29, 5-[1-(2-Chloro-6-fluoro-benzoyl)-3-hydroxy-4-oxo-imidazolidin-2-yl]thiophene-3-carbonitrile]
5 | ≥ 5.30 and 5.30 to 6.00 | N#Cc1csc(C2N(O)C(=O)CN2C(=O)c2c(F)cccc2F)c1 (stereo not shown) [Example 30, 5-[1-(2,6-Difluorobenzoyl)-3-hydroxy-4-oxo-imidazolidin-2-yl]thiophene-3-carbonitrile]
6 | ≥ 5.30 and 5.30 to 6.00 | N#Cc1csc(C2N(O)C(=O)CN2C(=O)c2ccccc2F)c1 (stereo not shown) [Example 31, 5-[1-(2-Fluorobenzoyl)-3-hydroxy-4-oxo-imidazolidin-2-yl]thiophene-3-carbonitrile]
7 | ≥ 6.00 | O=C1CN(C(=O)c2c(F)cccc2F)C(c2cc(Cl)cs2)N1O (stereo not shown) [Example 33, 2-(4-Chloro-2-thienyl)-1-(2,6-difluorobenzoyl)-3-hydroxy-imidazolidin-4-one]
8 | ≥ 5.30 and 5.30 to 6.00 | C#Cc1csc(C2N(O)C(=O)CN2C(=O)c2ccccc2F)c1 (stereo not shown) [Example 35, 2-(4-Ethynyl-2-thienyl)-1-(2-fluorobenzoyl)-3-hydroxy-imidazolidin-4-one]
9 | ≥ 6.00 | O=C1CN(C(=O)c2c(F)cccc2F)C(c2cc(I)cs2)N1O (stereo not shown) [Example 36, 1-(2,6-Difluorobenzoyl)-3-hydroxy-2-(4-iodo-2-thienyl)imidazolidin-4-one]
10 | ≥ 6.00 | O=C1CN(C(=O)c2c(F)cccc2F)C(c2cc(Br)c(F)s2)N1O (stereo not shown) [Example 37, 2-(4-Bromo-5-fluoro-2-thienyl)-1-(2,6-difluorobenzoyl)-3-hydroxy-imidazolidin-4-one]
11 | ≥ 6.00 | C#Cc1cc(F)c(C(=O)N2CC(=O)N(O)C2c2cc(Br)cs2)c(F)c1 (stereo not shown) [Example 38, 2-(4-Bromo-2-thienyl)-1-(4-ethynyl-2,6-difluoro-benzoyl)-3-hydroxy-imidazolidin-4-one]
12 | ≥ 6.00 | O=C1CN(C(=O)c2c(F)cc(C#CC3CC3)cc2F)C(c2cc(Br)cs2)N1O (stereo not shown) [Example 39, 2-(4-Bromo-2-thienyl)-1-[4-(2-cyclopropylethynyl)-2,6-difluoro-benzoyl]-3-hydroxy-imidazolidin-4-one]
13 | ≥ 6.00 | CS(=O)(=O)NCC#Cc1cc(F)c(C(=O)N2CC(=O)N(O)C2c2cc(Br)cs2)c(F)c1 (stereo not shown) [Example 40, N-[3-[4-[2-(4-bromo-2-thienyl)-3-hydroxy-4-oxo-imidazolidine-1-carbonyl]-3,5-difluoro-phenyl]-prop-2-ynyl]methanesulfonamide]
14 | ≥ 6.00 | O=C1CN(Cc2ccccc2F)C(c2ccc(Br)s2)N1O (stereo not shown) [Example 41, 2-(5-Bromo-2-thienyl)-1-[(2-fluorophenyl)methyl]-3-hydroxy-imidazolidin-4-one]
15 | ≥ 6.00 | O=C1CN(Cc2ccccc2F)C(c2csc(Br)c2)N1O (stereo not shown) [Example 42, 2-(5-Bromo-3-thienyl)-1-[(2-fluorophenyl)methyl]-3-hydroxy-imidazolidin-4-one]
16 | ≥ 6.00 | O=C1CN(Cc2ccccc2F)C(c2cc(Br)cs2)N1O (stereo not shown) [Example 43, 2-(4-Bromo-2-thienyl)-1-[(2-fluorophenyl)methyl]-3-hydroxy-imidazolidin-4-one]

Row | pIC50 | SMILES
17 | ≥ 6.00 | O=C1CN(Cc2c(F)cccc2F)C(c2cc(Br)cs2)N1O (stereo not shown) [Example 44, 2-(4-Bromo-2-thienyl)-1-[(2,6-difluorophenyl)methyl]-3-hydroxy-imidazolidin-4-one]
18 | ≥ 6.00 | CC(C)C#Cc1cc(F)c(C(=O)N2CC(=O)N(O)C2c2cc(Br)cs2)c(F)c1 (stereo not shown) [Example 50, 2-(4-Bromo-2-thienyl)-1-[2,6-difluoro-4-(3-methylbut-1-ynyl)benzoyl]-3-hydroxy-imidazolidin-4-one]
19 | ≥ 6.00 | COc1cc(F)c(C(=O)N2CC(=O)N(O)C2c2cc(Br)cs2)c(F)c1 (stereo not shown) [Example 51, 2-(4-Bromo-2-thienyl)-1-(2,6-difluoro-4-methoxy-benzoyl)-3-hydroxy-imidazolidin-4-one]
20 | ≥ 6.00 | O=C1CN(C(=O)c2c(F)cc(Br)cc2F)C(c2cc(Br)cs2)N1O (stereo not shown) [Example 52, 1-(4-Bromo-2,6-difluoro-benzoyl)-2-(4-bromo-2-thienyl)-3-hydroxy-imidazolidin-4-one]
21 | ≥ 5.30 and 5.30 to 6.00 | O=C1CN(C(=O)c2ccc(Cc3ccccc3)cc2)C(c2cc(Br)cs2)N1O (stereo not shown) [Example 53, 1-(4-Benzylbenzoyl)-2-(4-bromo-2-thienyl)-3-hydroxy-imidazolidin-4-one]
22 | ≥ 5.30 and 5.30 to 6.00 | O=C1CN(C(=O)c2ccc(Oc3ccccc3)cc2)C(c2cc(Br)cs2)N1O (stereo not shown) [Example 54, 2-(4-Bromo-2-thienyl)-3-hydroxy-1-(4-phenoxybenzoyl)imidazolidin-4-one]
23 | ≥ 6.00 | O=C1CN(C(=O)c2ccccc2Cl)C(c2cc(Br)cs2)N1O (stereo not shown) [Example 55, 2-(4-Bromo-2-thienyl)-1-(2-chlorobenzoyl)-3-hydroxy-imidazolidin-4-one]
24 | ≥ 5.30 and 5.30 to 6.00 | O=C1CN(C(=O)c2ccccc2C(F)(F)F)C(c2cc(Br)cs2)N1O (stereo not shown) [Example 56, 2-(4-Bromo-2-thienyl)-3-hydroxy-1-[2-(trifluoromethyl)benzoyl]imidazolidin-4-one]
25 | ≥ 6.00 | O=C1CN(C(=O)c2c(F)c(F)c(F)c(F)c2F)C(c2cc(Br)cs2)N1O (stereo not shown) [Example 63, 2-(4-Bromo-2-thienyl)-3-hydroxy-1-(2,3,4,5,6-pentafluorobenzoyl)imidazolidin-4-one]
26 | ≥ 5.30 and 5.30 to 6.00 | O=C1CN(C(=O)c2ccc(C(F)(F)F)cc2F)C(c2cc(Br)cs2)N1O (stereo not shown) [Example 64, 2-(4-Bromo-2-thienyl)-1-[2-fluoro-4-(trifluoromethyl)benzoyl]-3-hydroxy-imidazolidin-4-one]
27 | ≥ 6.00 | Cc1cccc(F)c1C(=O)N1CC(=O)N(O)C1c1cc(Br)cs1 (stereo not shown) [Example 65, 2-(4-Bromo-2-thienyl)-1-(2-fluoro-6-methyl-benzoyl)-3-hydroxy-imidazolidin-4-one]
28 | ≥ 6.00 | O=C1CN(C(=O)c2cccnc2Cl)C(c2cc(Br)cs2)N1O (stereo not shown) [Example 66, 2-(4-Bromo-2-thienyl)-1-(2-chloropyridine-3-carbonyl)-3-hydroxy-imidazolidin-4-one]
29 | ≥ 5.30 and 5.30 to 6.00 | O=C1CN(C(=O)C2CCCCC2)C(c2cc(Br)cs2)N1O (stereo not shown) [Example 67, 2-(4-Bromo-2-thienyl)-1-(cyclohexanecarbonyl)-3-hydroxy-imidazolidin-4-one]
30 | ≥ 5.30 and 5.30 to 6.00 | O=C1CN(C(=O)c2ccc(Cl)cc2Cl)C(c2cc(Br)cs2)N1O (stereo not shown) [Example 68, 2-(4-Bromo-2-thienyl)-1-(2,4-dichlorobenzoyl)-3-hydroxy-imidazolidin-4-one]
31 | ≥ 6.00 | O=C1CN(C(=O)c2cccc(Cl)c2Cl)C(c2cc(Br)cs2)N1O (stereo not shown) [Example 69, 2-(4-Bromo-2-thienyl)-1-(2,3-dichlorobenzoyl)-3-hydroxy-imidazolidin-4-one]
